Data taken from patent publication US20070149508A1, “Six membered heteroaromatic inhibitors targeting resistant kinase mutations” (TargeGen, Inc., priority 2005, published 2007).
Structures can show the parent of a compound that is named as a salt.

Legend:
[1] = target: T1, Abl (T315I) (Homo sapiens, UniProt P00519, T315I); assay: Abl (T315I) Kinase Assay (KinaseGlo luminescent detection of residual ATP); type: biochemical; conditions: Abl (T315I) IC50 (nM), Abl (T315I) (Upstate, 17 ng/well), Abltide 100 uM, ATP 500 nM, 60 minutes at 37° C.
T1 construct: purchased Upstate
Experimental: The assay was performed similarly to the Abl kinase assay. Abl (T315I) (Upstate, 17 ng/well); Abltide substrate (100 uM) and ATP (500 nM) comprised the reaction mixture. Compound was similarly diluted, and the reaction plate was incubated for 60 minutes at 37° C.

[2] = target: Abl kinase (Homo sapiens, UniProt P00519); assay: biochemical; conditions: Abl IC50 (nM), Abl kinase (Invitrogen, 20 ng/well), Abltide 100 μM, ATP 500 nM, 37° C. for 60 minutes, top concentration 10 uM

Row | Structure (SMILES) | IC50 [1] | IC50 [2]
1 | O=S(=O)(c1ccc(Nc2ncc(/C=C/c3cccc(O)c3)cn2)cc1F)N1CCNCC1 [3-(2-{2-[3-Fluoro-4-(piperazine-1-sulfonyl)-phenylamino]-pyrimidin-5-yl}-vinyl)-phenol] | 266 nM | 56 nM
2 | Nc1nc2ccc(/C=C/c3cnc(Nc4ccc(S(=O)(=O)N5CCC(NCCO)CC5)cc4)nc3)cc2s1 [2-[(1-{[4-({5-[(E)-2-(2-amino-1,3-benzothiazol-6-yl)vinyl]pyrimidin-2-yl}amino)phenyl]sulfonyl}piperidin-4-yl)amino]ethanol] | 146 nM | 158 nM
3 | Cc1cccc(/C=C/c2cnc(Nc3ccc(S(=O)(=O)C4CCNCC4)cc3)nc2)c1 [5-(3-(methyl)styryl)-N-(4-(piperidin-4-ylsulfonyl)phenyl)pyrimidin-2-amine. TFA] | 562 nM | 51 nM
4 | Nc1nc2ccc(/C=C/c3cnc(Nc4ccc(C(=O)N5CCNCC5)cc4)nc3)cc2s1 [(4-{5-[2-(2-Amino-benzothiazol-6-yl)-vinyl]-pyrimidin-2-ylamino}-phenyl)-piperazin-1-yl-methanone] | 87 nM | 360 nM
5 | Nc1nc2ccc(/C=C/c3cnc(Nc4ccc(S(=O)(=O)N5CCC(O)CC5)cc4)nc3)cc2s1 [(E)-1-(4-(5-(2-(2-aminobenzo[d]thiazol-6-yl)vinyl)pyrimidin-2-ylamino)phenylsulfonyl)piperidin-4-ol] | 317 nM | 922 nM
6 | O=S(=O)(c1ccc(Nc2ncc(/C=C/c3cccc4[nH]ccc34)cn2)cc1)C1CCN(CCO)CC1 [2-(4-(4-(5-((E)-2-(1H-indol-4-yl)vinyl)pyrimidin-2-ylamino)phenylsulfonyl)piperidin-1-yl)ethanol Hydrochloride] | 202 nM | 8.4 nM
7 | O=S(=O)(c1ccc(Nc2ncc(/C=C/c3cccc4[nH]ccc34)cn2)cc1N1CCNCC1)N1CCNCC1 [5-[(E)-2-(1H-indol-4-yl)vinyl]-N-[3-piperazin-1-yl-4-(piperazin-1-ylsulfonyl)phenyl]pyrimidin-2-amine trifluoroacetic acid salt] | 885 nM | 84 nM
8 | Nc1nc2ccc(/C=C/c3cnc(Nc4ccc(CCCN5CCCC5)cc4)nc3)cc2s1 [6-[(E)-2-(2-{[4-(3-pyrrolidin-1-ylpropyl)phenyl]amino}pyrimidin-5-yl)vinyl]-1,3-benzothiazol-2-amine] | 9450 nM | 5150 nM
9 | O=S(=O)(c1ccc(Nc2ncc(/C=C/c3cccc(O)c3)cn2)cc1OC(F)(F)F)N1CCNCC1 [3-(2-{2-[4-(Piperazine-1-sulfonyl)-3-trifluoromethoxy-phenylamino]-pyrimidin-5-yl}-vinyl)-phenol] | 752 nM | 97 nM
10 | O=S(=O)(c1ccc(Nc2ncc(/C=C/c3cccc4[nH]ccc34)cn2)cc1)N1CCCNCC1 [[4-([1,4]Diazepane-1-sulfonyl)-phenyl]-{5-[2-(1H-indol-4-yl)-vinyl]-pyrimidin-2-yl}-amine] | 195 nM | 13 nM
11 | O=S(=O)(NCCCO)c1ccc(Nc2ncc(/C=C/c3cccc(O)c3)cn2)cc1 [4-{5-[2-(3-Hydroxy-phenyl)-vinyl]-pyrimidin-2-ylamino}-N-(3-hydroxy-propyl)-benzenesulfonamide] | 112 nM | 8.9 nM
12 | NC(=O)CN(C1CCNCC1)S(=O)(=O)c1ccc(Nc2ncc(/C=C/c3ccc4nc(N)sc4c3)cn2)cc1 [[4-({5-[(E)-2-(2-amino-1,3-benzothiazol-6-yl)vinyl]pyrimidin-yl}amino)phenyl]sulfonyl}-N2-piperidin-4-ylglycinamide] | 96 nM | 113 nM
13 | O=S(=O)(c1ccc(Nc2ncc(/C=C/c3cccc(O)c3)cn2)cc1)N1CCNCC1 [3-(2-{2-[4-(Piperazine-1-sulfonyl)-phenylamino]-pyrimidin-5-yl}-vinyl)-phenol] | 37 nM | 4.1 nM
14 | O=S(=O)(NC1CCCNC1)c1ccc(Nc2ncc(/C=C/c3cccc(O)c3)cn2)cc1 (stereo not shown) [4-{5-[2-(3-Hydroxy-phenyl)-vinyl]-pyrimidine-2-ylamino}-N-piperdin-3-yl-benzenesulfonamide Hydrochloride] | 60 nM | 12 nM
15 | O=S(=O)(c1ccc(Nc2ncc(/C=C/c3ccc4[nH]ncc4c3)cn2)cc1)C1CCNCC1 [{5-[2-(1H-Indazol-5-yl)-vinyl]-pyrimidin-2-yl}-[4-(piperidine-4-sulfonyl)-phenyl]-amine] | 262 nM | 163 nM
16 | O=S(=O)(c1ccc(Nc2ncc(/C=C/c3ccc(F)c4[nH]ccc34)cn2)cc1)C1CCNCC1 [5-((E)-2-(7-fluoro-1H-indol-4-yl)vinyl)-N-(4-(piperidin-ylsulfonyl)phenyl)pyrimidin-2-amine Hydrochloride] | 149 nM | 8 nM

Row | Structure (SMILES) | IC50 [1] | IC50 [2]
17 | O=S(=O)(c1ccc(Nc2ncc(/C=C/c3ccc4[nH]ccc4c3)cn2)cc1)C1CCNCC1 [{5-[2-(1H-Indol-5-yl)-vinyl]-pyrimidin-2-yl}-[4-(piperidine-4-sulfonyl)-phenyl]-amine] | 138 nM | 37 nM
18 | Nc1nc2ccc(/C=C/c3cnc(Nc4ccc(S(=O)(=O)N5CCCNCC5)cc4F)nc3)cc2s1 [(E)-6-(2-(2-(4-(1,4-diazepan-1-ylsulfonyl)-2-fluorophenylamino)pyrimidin-5-yl)vinyl)benzo[d]thiazol-2-amine hydrochloride] | 6980 nM | 10800 nM
19 | O=S(=O)(NC1CCNCC1)c1ccc(Nc2ncc(/C=C/c3cccc4[nH]ncc34)cn2)cc1 [4-{5-[2-(1H-Indazol-4-yl)-vinyl]-pyrimidin-2-ylamino}-N-piperidin-4-yl-benzenesulfonamide hydrochloride] | 176 nM | 6.2 nM
20 | O=C(Nc1ccc(/C=C/c2cnc(Nc3ccc(S(=O)(=O)C4CCNCC4)cc3)nc2)cc1)c1cccc(C(F)(F)F)c1 [N-(4-((E)-2-(2-(4-(piperidin-4-ylsulfonyl)phenylamino)pyrimidin-5-yl)vinyl)phenyl)-3-(trifluoromethyl)benzamide Hydrochloride] | 1010 nM | 506 nM
21 | NC1Cc2ccc(/C=C/c3cnc(Nc4ccc(S(=O)(=O)N5CCC(CO)CC5)cc4)nc3)cc2C1 (stereo not shown) [[1-(4-{5-[2-(2-Amino-indan-5-yl)-vinyl]-pyrimidin-2-ylamino}-benzenesulfonyl)-piperidin-4-yl]-methanol] | 2790 nM | 13700 nM
22 | O=C(c1ccc(Nc2ncc(/C=C/c3cccc4[nH]ncc34)cn2)cc1)N1CCNCC1 [(4-(5-((E)-2-(1H-indazol-4-yl)vinyl)pyrimidin-2-ylamino)phenyl)(piperazin-1-yl)methanone hydrochloride] | 231 nM | 20 nM
23 | C(=C\c1cccc2[nH]ncc12)/c1cnc(Nc2ccc(OC3CCNCC3)cc2)nc1 [5-[(E)-2-(1H-indazol-4-yl)vinyl]-N-[4-(piperidin-4-yloxy)phenyl]pyrimidin-2-amine trifluoroacetic acid salt] | 169 nM | 7.9 nM
24 | Nc1nc2ccc(/C=C/c3cnc(Nc4ccc(S(=O)(=O)NCCO)c(N5CCNCC5)c4)nc3)cc2s1 [4-({5-[(E)-2-(2-amino-1,3-benzothiazol-6-yl)vinyl]pyrimidin-2-yl}amino)-N-(2-hydroxyethyl)-2-piperazin-1-ylbenzenesulfonamide] | 354 nM | 585 nM
25 | Nc1nc2ccc(/C=C/c3cnc(Nc4ccc(OC5CCNCC5)cc4)nc3)cc2s1 [6-[(E)-2-(2-{[4-(piperidin-4-yloxy)phenyl]amino}pyrimidin-5-yl)vinyl]-1,3-benzothiazol-2-amine] | 428 nM | 259 nM
26 | O=C(Nc1nc2ccc(/C=C/c3cnc(Nc4ccc(S(=O)(=O)C5CCNCC5)cc4)nc3)cc2s1)c1cccc(C(F)(F)F)c1 [N-(6-((E)-2-(2-(4-(piperidin-4-ylsulfonyl)phenylamino)pyrimidin-5-(trifluoromethyl)benzamide Hydrochloride] | 332 nM | 967 nM
27 | Nc1nc2cc(/C=C/c3cnc(Nc4ccc(S(=O)(=O)C5CCNCC5)cc4)nc3)ccc2s1 [5-((E)-2-(2-(4-(piperidin-4-ylsulfonyl)phenylamino)pyrimidin-5-yl)vinyl)benzo[d]thiazol-2-amine Hydrochloride] | 416 nM | 101 nM
28 | O=S(=O)(c1ccc(Nc2ncc(/C=C/c3cccc4[nH]ccc34)cn2)cc1)C1CCNCC1 [5-((E)-2-(1H-indol-4-yl)vinyl)-N-(4-(piperidin-4-2-amine] | 154 nM | 6.3 nM
29 | O=S(=O)(CC1CCNCC1)c1ccc(Nc2ncc(/C=C/c3cccc(O)c3)cn2)cc1 [3-(2-{2-[4-(Piperidin-4-ylmethanesulfonyl)-phenylamino]-pyrimidin-5-yl}-vinyl)-phenol] | 96 nM | 31 nM
30 | O=S(=O)(c1ccc(Nc2ncc(/C=C/c3cccc4[nH]ncc34)cn2)cc1)C1CCNCC1 [5-((E)-2-(1H-indazol-4-ylsulfonyl)phenyl)pyrimidin-yl)vinyl)-N-(4-(piperidin-4-2-amine trifluoroacetic acid salt] | 29 nM | 1.5 nM
31 | O=S(=O)(c1ccc(Nc2ncc(/C=C/c3ccc(-c4ncc[nH]4)cc3)cn2)cc1)C1CCNCC1 [5-((E)-(4-(1H-imidazol-2-yl)styryl))-N-(4-(piperidin-4-ylsulfonyl)phenyl)pyrimidin-2-amine hydrochloride] | 1290 nM | 374 nM
32 | O=S(=O)(c1ccc(Nc2ncc(/C=C/c3cccc(O)c3)cn2)cc1NCCO)N1CCNCC1 [3-{(E)-2-[2-({3-[(2-hydroxyethyl)amino]-4-(piperazin-1-ylsulfonyl)phenyl}amino)pyrimidin-5-yl]vinyl}phenol trifluoroacetic acid salt] | 78 nM | 7.3 nM
